This note sets out measurements from ChEMBL document CHEMBL1158815, “Sesquiterpene lactones from Centaurea spinosa and their antibacterial and cytotoxic activities” (2005).

Structures are written as SMILES. Values after ≈ are worked out from the molar mass of the structure shown. Active and inactive are the calls of the source.

One assay deals with Staphylococcus aureus. The assay can be described thus: Antimicrobial activity against Staphylococcus aureus ATCC 6538 by microdilution method. The format is functional. On the technique in general: Dilution methods test growth across graded concentrations, often in twofold steps.
Another assay concerns Bacillus cereus. In words: Antimicrobial activity against Bacillus cereus isolates by microdilution method. It counts as functional.
A further assay deals with Micrococcus luteus. In words: Antimicrobial activity against Micrococcus flavus ATCC 10240 by microdilution method. The format is functional.
In the next assay the test system is Pseudomonas aeruginosa. In words: Antimicrobial activity against Pseudomonas aeruginosa ATCC 27853 by microdilution method. The format is functional, organism-based.
The next assay deals with Proteus mirabilis. In words: Antimicrobial activity against Proteus mirabilis isolates by microdilution method. The format is functional, organism-based.
Another assay has as its system Escherichia coli. The assay can be described thus: Antimicrobial activity against Escherichia coli ATCC 35218 by microdilution method. The format is functional, organism-based.
The subject of assay [1] is DLD-1. The assay can be described thus: Cytotoxicity against human DLD1 cells at <40 uM after 48 hrs by SRB assay. The format is functional, cell-based. On the technique in general: Sulforhodamine B stains cellular protein and so reports cell mass.
The subject of assay [2] is SF-268. In words: Cytotoxicity against human SF268 cells at <40 uM after 48 hrs by SRB assay. The format is functional, cell-based.
Assay [3] deals with MCF7. In words: Cytotoxicity against human MCF7 cells after 48 hrs by SRB assay. It counts as functional. Conditions: MCF7, 48 h.
The subject of assay [4] is MCF7. The assay can be described thus: Cytotoxicity against human MCF7 cells at <40 uM after 48 hrs by SRB assay. It counts as functional, cell-based.
The subject of assay [5] is NCI-H460. In words: Cytotoxicity against human H460 cells after 48 hrs by SRB assay. The format is functional. Conditions: NCI-H460, 48 h.
The subject of assay [6] is NCI-H460. In words: Cytotoxicity against human H460 cells at <40 uM after 48 hrs by SRB assay. It counts as functional, cell-based.
Assay [7] concerns OVCAR-3. In words: Cytotoxicity against human OVCAR-3 cells after 48 hrs by SRB assay. The format is functional. As to conditions: OVCAR-3, 48 h.
The subject of assay [8] is OVCAR-3. In words: Cytotoxicity against human OVCAR-3 cells at <40 uM after 48 hrs by SRB assay. It counts as functional, cell-based.
The test system of assay [9] is SF-268. The assay can be described thus: Cytotoxicity against human SF268 cells after 48 hrs by SRB assay. The format is functional. Conditions: SF-268, 48 h.
Assay [10] deals with DLD-1. In words: Cytotoxicity against human DLD1 cells after 48 hrs by SRB assay. Conditions: DLD-1, 48 h. It counts as functional.
[11] abbreviates: read-out: LC50 (the source's name).

As usually defined, the MIC is the smallest concentration in the dilution series that meets the test's criterion for growth inhibition. A higher MIC goes with weaker potency. As usually defined, the GI50 is the concentration at which growth is held to half of that of the control. Read a low GI50 as more potent growth inhibition. Broadly, the TGI is the concentration giving total growth inhibition.

`C=C1C(=O)O[C@H]2[C@H]1[C@@H](OC(=O)C(=C)[C@@H](O)CO)C[C@]1(C)[C@@H]2[C@H](C=O)CC[C@H]1O`: the results for the MIC against Staphylococcus aureus, against Bacillus cereus and against Micrococcus luteus were 5 µg/mL (≈ 12.7 µM), 5 µg/mL (≈ 12.7 µM) and 0.625 µg/mL (≈ 1.58 µM), respectively. For the same molecule, the outcome in the assay with Pseudomonas aeruginosa, in the assay with Proteus mirabilis, in the assay with Escherichia coli, in the assay on DLD-1 [1], in the assay on SF-268 [2] and in the assay on MCF7 [4] was inactive. The result with NCI-H460 [6] and with OVCAR-3 [8] was inactive. Besides, the GI50 was 31.7 µM in the assay on MCF7 [3], 32.4 µM in the assay on NCI-H460 [5] and 36.4 µM with OVCAR-3 [7].

Take `C=C1C(=O)O[C@@H]2/C=C(\CO)CC/C=C(\C)C[C@H](OC(=O)C(=C)[C@@H](O)COC(C)=O)[C@@H]12`: the results for the MIC against Staphylococcus aureus, in the assay with Bacillus cereus and in the assay with Micrococcus luteus were 5 µg/mL (≈ 11.9 µM), 1.25 µg/mL (≈ 2.97 µM) and 5 µg/mL (≈ 11.9 µM), respectively. The outcome in the assay on Pseudomonas aeruginosa, in the assay on Proteus mirabilis and with Escherichia coli was inactive.

In the case of `C=C[C@]1(C)C[C@H](OC(=O)C(=C)[C@@H](O)CO)[C@H]2C(=C)C(=O)O[C@@H]2[C@H]1C(=C)CO`, the MIC against Staphylococcus aureus was 5 µg/mL (≈ 13.2 µM); against Bacillus cereus, 1.25 µg/mL (≈ 3.3 µM); in the assay on Micrococcus luteus it was 5 µg/mL (≈ 13.2 µM). Also, the outcome with Pseudomonas aeruginosa, with Proteus mirabilis, in the assay with Escherichia coli, in the assay on SF-268 [2] and in the assay on MCF7 [4] was inactive. Also, in the assay on SF-268 [9], halving of growth (GI50) required 29.3 µM.

Consider `CN[C@@H]1[C@H](O[C@H]2[C@H](O[C@H]3[C@H](O)[C@@H](O)[C@H](N=C(N)N)[C@@H](O)[C@@H]3N=C(N)N)O[C@@H](C)[C@]2(O)C=O)O[C@@H](CO)[C@H](O)[C@H]1O` [STREPTOMYCIN], for which the figures for the minimum inhibitory concentration (MIC) in the assay with Staphylococcus aureus, in the assay with Bacillus cereus and in the assay with Micrococcus luteus were 5 µg/mL (≈ 8.6 µM), 0.1 µg/mL (≈ 0.172 µM) and 0.1 µg/mL (≈ 0.172 µM), respectively.

For the molecule `C=C1C(=O)O[C@H]2[C@H]1[C@@H](OC(=O)C(=C)[C@@H](O)COC(C)=O)C[C@]1(C)[C@@H]2[C@@H](C=O)CC[C@H]1O`, the MIC against Staphylococcus aureus and against Micrococcus luteus was 5 µg/mL (≈ 11.5 µM) in each case. The result with Pseudomonas aeruginosa, in the assay with Proteus mirabilis and with Escherichia coli was inactive.

As for `CC[C@]1(O)C[C@@H]2CN(CCc3c([nH]c4ccccc34)[C@@](C(=O)OC)(c3cc4c(cc3OC)N(C)[C@H]3[C@@](O)(C(=O)OC)[C@H](OC(C)=O)[C@]5(CC)C=CCN6CC[C@]43[C@@H]65)C2)C1` [VINBLASTINE], the GI50 in the assay with DLD-1 [10] is below 10 nM; in the assay on SF-268 [9] it was below 0.01 µM; in the assay on MCF7 [3] it was below 0.01 µM; in the assay with NCI-H460 [5], below 0.01 µM; in the assay on OVCAR-3 [7], below 0.01 µM. The TGI with DLD-1 [10] was 2440 nM; in the assay with MCF7 [3] it was 1600 nM; in the assay on NCI-H460 [5], 350 nM; in the assay on OVCAR-3 [7], below 10 nM. The CC50 with DLD-1 [10] (setting [11]) was determined as 2480 nM; in the assay on OVCAR-3 [7] (setting [11]), 920 nM.

Turning to `C=C1C(=O)O[C@@H]2/C=C(\CO)CC/C=C(\C)C[C@H](OC(=O)/C(=C/COC(C)=O)CO)[C@@H]12`, the MIC against Staphylococcus aureus was 5 µg/mL (≈ 11.9 µM); against Bacillus cereus, 1.25 µg/mL (≈ 2.97 µM); against Micrococcus luteus, 5 µg/mL (≈ 11.9 µM). In addition, the outcome with Pseudomonas aeruginosa, in the assay on Proteus mirabilis and with Escherichia coli was inactive.

Regarding `C=C[C@]1(C)C[C@H](OC(=O)C(=C)[C@@H](O)CO)[C@H]2C(=C)C(=O)O[C@@H]2[C@H]1C(=C)C=O`, the MIC against Staphylococcus aureus is 5 µg/mL (≈ 13.3 µM); against Bacillus cereus it was 1.25 µg/mL (≈ 3.32 µM); against Micrococcus luteus it was 0.625 µg/mL (≈ 1.66 µM). Besides, the result with Pseudomonas aeruginosa, in the assay on Proteus mirabilis, with Escherichia coli, with DLD-1 [1], in the assay on SF-268 [2] and in the assay with MCF7 [4] was inactive. Further, the outcome in the assay with NCI-H460 [6] and with OVCAR-3 [8] was inactive. In addition, the GI50 in the assay with SF-268 [9] worked out at 7.7 µM; in the assay with MCF7 [3], 10 µM; in the assay on NCI-H460 [5] it was 37 µM; in the assay on OVCAR-3 [7] it was 4.7 µM. Further, the TGI in the assay with SF-268 [9] was found to be 38 µM.

On to `C=C[C@]1(C)C[C@H](OC(=O)C(=C)[C@@H](O)CO)[C@@H](C(=C)C(=O)OC)[C@H](O)C1C(=C)CO` (stereo partly drawn), for which, in the assay with Staphylococcus aureus, the minimum inhibitory concentration (MIC) was found to be 5 µg/mL (≈ 12.2 µM). Besides, the outcome in the assay with Pseudomonas aeruginosa, in the assay with Proteus mirabilis, with Escherichia coli, in the assay on DLD-1 [1], in the assay with SF-268 [2] and with MCF7 [4] was inactive. The outcome in the assay with NCI-H460 [6] and in the assay with OVCAR-3 [8] was inactive. The GI50 in the assay with SF-268 [9] is 37.6 µM; in the assay on OVCAR-3 [7] it was 31.9 µM.

As for `C=C1C(=O)O[C@@H]2[C@H]1[C@@H](OC(=O)/C(=C/COC(C)=O)CO)C[C@]1(C)[C@@H]2[C@@H](C=O)CC[C@H]1O`, the figures for the MIC against Staphylococcus aureus and against Micrococcus luteus were 3.5 µg/mL (≈ 8.02 µM) and 0.437 µg/mL (≈ 1 µM), respectively. For the same molecule, the result in the assay with Pseudomonas aeruginosa, in the assay on Proteus mirabilis and in the assay with Escherichia coli was inactive.

In the case of `C=C1C(=O)O[C@H]2[C@H]1[C@@H](OC(=O)C(=C)[C@@H](O)CO)C[C@]1(C)[C@@H]2[C@@H](C=O)CC[C@H]1O` [MALACITANOLIDE], the minimum inhibitory concentration (MIC) in the assay with Staphylococcus aureus and with Micrococcus luteus was 5 µg/mL (≈ 12.7 µM) each time. In addition, the outcome in the assay on Pseudomonas aeruginosa, in the assay with Proteus mirabilis and with Escherichia coli was inactive.

For the molecule `C=C1C(=O)O[C@@H]2/C=C(\CO)CC/C=C(\C)C[C@H](OC(=O)C(=C)[C@H](O)CO)[C@@H]12` [CNICIN], the values for the minimal inhibitory concentration (MIC) against Bacillus cereus and in the assay with Micrococcus luteus were 1.25 µg/mL (≈ 3.3 µM) and 5 µg/mL (≈ 13.2 µM), respectively. Moreover, the outcome in the assay on Pseudomonas aeruginosa, in the assay with Proteus mirabilis, in the assay on Escherichia coli, with DLD-1 [1], in the assay on SF-268 [2] and with MCF7 [4] was inactive. Also, the result in the assay with NCI-H460 [6] and with OVCAR-3 [8] was inactive. In addition, the figures for the GI50 with MCF7 [3] and in the assay on OVCAR-3 [7] were 37.8 µM and 37.4 µM, respectively.
